# Columns and labels:
# Jack bean urease [1] = target: T1, Jack bean urease (Canavalia ensiformis, UniProt P07374); assay: biochemical
# T1 construct: purchased Sigma-Aldrich (USA) Type IX
# Jack bean urease [2] = target: T1, Jack bean urease; assay: mechanistic (kinetic) studies on urease; assay type: biochemical
# Method: For mechanistic studies, urease enzyme solution (1 U/200 μL) was incubated with different concentrations of inhibitors for 15 min at 30° C. The reaction was initiated by adding different concentrations of substrate (0.5-4.0 mM), then phenol and alkali reagent were added and change in absorbance was measured for 50 minutes at 630 nm on microtitre plate reader (Spectra Max M5, Molecular Devices, CA, USA).
# The IC50 values were calculated by the EZ-Fit enzyme kinetics program (Perellela Scientific, Inc., Amherst, USA). Lineweaver-Burk plot, secondary plot, and Dixon plot were plotted by using Grafit 7 (Erithacus Software Limited, UK). Grafit 7 program was used to evaluate the correlation coefficients, slopes, and intercepts by linear regression analysis.
# T1 sequence (P07374 whole entry, looked up): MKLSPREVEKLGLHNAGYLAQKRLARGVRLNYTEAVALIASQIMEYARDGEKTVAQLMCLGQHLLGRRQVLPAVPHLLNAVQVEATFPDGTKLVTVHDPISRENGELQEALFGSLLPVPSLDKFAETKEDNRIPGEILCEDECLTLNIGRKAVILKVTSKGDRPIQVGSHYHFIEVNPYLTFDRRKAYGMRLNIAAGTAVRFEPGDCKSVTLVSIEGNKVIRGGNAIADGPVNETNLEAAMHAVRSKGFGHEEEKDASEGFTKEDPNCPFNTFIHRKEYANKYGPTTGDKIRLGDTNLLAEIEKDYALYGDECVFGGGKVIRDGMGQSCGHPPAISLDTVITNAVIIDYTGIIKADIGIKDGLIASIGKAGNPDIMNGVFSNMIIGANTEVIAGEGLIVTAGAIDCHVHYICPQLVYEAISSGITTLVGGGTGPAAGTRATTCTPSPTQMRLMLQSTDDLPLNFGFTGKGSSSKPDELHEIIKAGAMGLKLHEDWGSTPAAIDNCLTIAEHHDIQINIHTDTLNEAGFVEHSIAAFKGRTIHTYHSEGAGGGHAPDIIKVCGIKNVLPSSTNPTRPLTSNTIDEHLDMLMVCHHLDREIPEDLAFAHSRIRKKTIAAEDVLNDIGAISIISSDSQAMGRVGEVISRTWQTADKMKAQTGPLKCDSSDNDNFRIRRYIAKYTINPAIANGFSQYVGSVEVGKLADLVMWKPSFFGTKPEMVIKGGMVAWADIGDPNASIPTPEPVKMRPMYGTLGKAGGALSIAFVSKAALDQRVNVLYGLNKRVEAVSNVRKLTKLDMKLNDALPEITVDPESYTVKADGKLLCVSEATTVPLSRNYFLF
structure (smiles),measurement,setting,value
"C[C@H](CS)C(=O)N1CCC[C@H]1C(=O)O [Captopril, (2S)-1-[(2S)-2-methyl-3-sulfanylpropanoyl]pyrrolidine-2-carboxylic acid]",IC50,Jack bean urease [1],27 ± 1.97 µM
same,type of inhibition (Lineweaver-Burk plot),"Jack bean urease [2]; FIG. 2A, apparent Km and Vmax changed",mixed-type inhibitor
same,type of inhibition (Dixon plot),"Jack bean urease [2]; FIG. 2C, 1/Vmax vs [I]",non-competitive

# — patent US9688628B1, “Drug repositioning: urease inhibitory activity of (2S)-1-[(2S)-2-methyl-3-sulfanylpropanoyl]pyrrolidine-2-carboxylic acid (captopril)” (priority 2016, dated 2017)
